ChEMBL document CHEMBL1140791, “Design and identification of selective HER-2 sheddase inhibitors via P1' manipulation and unconventional P2' perturbations to induce a molecular metamorphosis” (Bioorg Med Chem Lett, 2008)
Active and inactive are the calls of the source. No cut-off for these calls is given here.

Experiments:
Interstitial collagenase = target: T1, Interstitial collagenase (Homo sapiens, UniProt P03956); test: Binding affinity to MMP1
T1 sequence (P03956 whole entry): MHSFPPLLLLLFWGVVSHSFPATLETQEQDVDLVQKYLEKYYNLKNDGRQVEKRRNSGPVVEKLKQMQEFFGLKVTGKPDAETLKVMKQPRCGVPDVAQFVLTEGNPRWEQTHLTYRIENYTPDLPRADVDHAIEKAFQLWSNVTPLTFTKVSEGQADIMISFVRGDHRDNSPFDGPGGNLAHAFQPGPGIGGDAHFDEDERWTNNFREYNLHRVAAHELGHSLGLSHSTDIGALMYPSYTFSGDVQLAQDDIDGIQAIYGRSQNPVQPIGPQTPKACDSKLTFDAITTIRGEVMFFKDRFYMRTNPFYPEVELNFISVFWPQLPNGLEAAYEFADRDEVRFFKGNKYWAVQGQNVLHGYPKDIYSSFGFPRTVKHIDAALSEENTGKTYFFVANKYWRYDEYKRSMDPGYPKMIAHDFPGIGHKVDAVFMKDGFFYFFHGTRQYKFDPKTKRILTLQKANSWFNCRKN

[1] = target: 72 kDa type IV collagenase (Homo sapiens, UniProt P08253); test: Binding affinity to MMP2
Sequence of 72 kDa type IV collagenase (P08253 whole entry): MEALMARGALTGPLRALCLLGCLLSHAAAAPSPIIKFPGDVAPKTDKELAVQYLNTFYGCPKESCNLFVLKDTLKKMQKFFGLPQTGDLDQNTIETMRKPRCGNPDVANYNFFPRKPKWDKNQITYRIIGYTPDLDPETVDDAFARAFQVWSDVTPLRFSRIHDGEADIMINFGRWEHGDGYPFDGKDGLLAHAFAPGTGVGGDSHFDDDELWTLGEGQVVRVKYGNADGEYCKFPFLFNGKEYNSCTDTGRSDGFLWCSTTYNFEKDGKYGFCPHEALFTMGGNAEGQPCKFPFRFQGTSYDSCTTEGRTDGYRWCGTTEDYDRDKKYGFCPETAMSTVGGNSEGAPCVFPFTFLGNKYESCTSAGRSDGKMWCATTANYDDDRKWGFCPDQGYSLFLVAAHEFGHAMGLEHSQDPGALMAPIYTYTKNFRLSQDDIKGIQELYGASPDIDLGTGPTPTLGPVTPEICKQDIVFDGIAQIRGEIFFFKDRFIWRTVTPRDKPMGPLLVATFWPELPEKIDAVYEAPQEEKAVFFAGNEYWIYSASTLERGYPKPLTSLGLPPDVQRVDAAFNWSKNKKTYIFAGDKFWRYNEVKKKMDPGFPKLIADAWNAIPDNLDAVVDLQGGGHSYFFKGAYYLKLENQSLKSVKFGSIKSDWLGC

Stromelysin-1 = Stromelysin-1 (Homo sapiens, UniProt P08254); test: Binding affinity to MMP3
Sequence of Stromelysin-1 (P08254 whole entry): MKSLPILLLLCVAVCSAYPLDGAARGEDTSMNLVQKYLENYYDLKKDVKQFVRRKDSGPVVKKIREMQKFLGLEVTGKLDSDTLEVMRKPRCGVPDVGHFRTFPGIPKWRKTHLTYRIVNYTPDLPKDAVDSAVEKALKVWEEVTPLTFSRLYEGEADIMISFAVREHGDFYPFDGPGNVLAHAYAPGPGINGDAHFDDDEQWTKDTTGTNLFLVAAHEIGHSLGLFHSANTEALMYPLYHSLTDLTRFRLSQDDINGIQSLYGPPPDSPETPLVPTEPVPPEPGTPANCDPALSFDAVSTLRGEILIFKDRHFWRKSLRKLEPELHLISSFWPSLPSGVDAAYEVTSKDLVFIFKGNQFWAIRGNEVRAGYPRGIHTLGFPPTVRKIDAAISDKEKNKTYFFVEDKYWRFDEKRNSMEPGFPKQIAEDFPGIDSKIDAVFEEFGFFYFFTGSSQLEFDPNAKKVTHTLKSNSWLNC

[2] = target: Matrix metalloproteinase-9 (Homo sapiens, UniProt P14780); test: Binding affinity to MMP9
Sequence of Matrix metalloproteinase-9 (P14780 whole entry, the tested form may be a part): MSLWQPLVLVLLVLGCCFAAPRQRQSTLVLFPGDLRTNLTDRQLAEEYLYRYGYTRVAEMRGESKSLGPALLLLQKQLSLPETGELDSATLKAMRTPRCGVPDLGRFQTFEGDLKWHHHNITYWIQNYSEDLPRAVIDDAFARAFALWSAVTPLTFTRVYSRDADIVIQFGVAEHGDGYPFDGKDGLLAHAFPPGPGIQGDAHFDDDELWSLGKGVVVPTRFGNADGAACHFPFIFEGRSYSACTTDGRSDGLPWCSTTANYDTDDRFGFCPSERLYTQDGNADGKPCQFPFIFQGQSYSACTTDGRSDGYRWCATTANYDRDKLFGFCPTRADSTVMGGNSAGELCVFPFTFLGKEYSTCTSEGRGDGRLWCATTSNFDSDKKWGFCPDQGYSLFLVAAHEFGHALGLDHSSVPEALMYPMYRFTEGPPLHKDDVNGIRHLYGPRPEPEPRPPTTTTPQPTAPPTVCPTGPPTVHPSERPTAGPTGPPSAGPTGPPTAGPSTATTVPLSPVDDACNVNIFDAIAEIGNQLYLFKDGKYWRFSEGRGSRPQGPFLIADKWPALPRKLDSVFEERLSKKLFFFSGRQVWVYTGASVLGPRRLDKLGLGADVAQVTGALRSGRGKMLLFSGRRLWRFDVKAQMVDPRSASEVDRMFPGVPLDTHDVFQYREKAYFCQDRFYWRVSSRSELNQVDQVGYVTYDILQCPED

[3] = target: T2, Disintegrin and metalloproteinase domain-containing protein 10 (Homo sapiens, UniProt O14672); test: (§1) Inhibition of HER2 sheddase in BT474 cells by extracellular domain shedding assay; type: cell-based, BT-474
T2 sequence (O14672 whole entry): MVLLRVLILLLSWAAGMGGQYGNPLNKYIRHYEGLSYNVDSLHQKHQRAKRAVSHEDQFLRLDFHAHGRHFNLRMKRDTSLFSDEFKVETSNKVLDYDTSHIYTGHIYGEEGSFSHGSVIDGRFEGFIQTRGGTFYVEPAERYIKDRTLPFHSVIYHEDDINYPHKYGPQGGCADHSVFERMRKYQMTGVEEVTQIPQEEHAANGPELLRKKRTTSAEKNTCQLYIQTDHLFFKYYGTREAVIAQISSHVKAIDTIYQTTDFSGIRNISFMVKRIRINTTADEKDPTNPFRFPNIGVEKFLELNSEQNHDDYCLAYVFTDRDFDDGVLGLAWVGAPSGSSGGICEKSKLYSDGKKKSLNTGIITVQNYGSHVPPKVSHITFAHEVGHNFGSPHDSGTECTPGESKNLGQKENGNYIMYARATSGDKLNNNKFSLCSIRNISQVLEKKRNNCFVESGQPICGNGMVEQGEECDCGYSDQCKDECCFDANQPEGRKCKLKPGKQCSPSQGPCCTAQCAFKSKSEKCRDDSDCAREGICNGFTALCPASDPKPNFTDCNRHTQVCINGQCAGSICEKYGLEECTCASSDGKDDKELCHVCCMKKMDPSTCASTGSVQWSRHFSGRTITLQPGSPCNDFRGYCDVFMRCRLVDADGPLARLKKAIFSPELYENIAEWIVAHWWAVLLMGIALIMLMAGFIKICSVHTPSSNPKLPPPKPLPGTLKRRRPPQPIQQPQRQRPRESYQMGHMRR

[4] = target: T2, Disintegrin and metalloproteinase domain-containing protein 10; test: Binding affinity to ADAM10
[5] = Selectivity for ADAM10 over MMP2
[6] = Selectivity for ADAM10 over MMP9
[7] = Selectivity for ADAM10 over MMP3
[8] = target: T3, Disintegrin and metalloproteinase domain-containing protein 10 (Homo sapiens) (UniProt O14672); test: as §1; type: cell-based; conditions: BT-474
T3 sequence (whole entry): T2 sequence (O14672 whole entry)

[9] = Selectivity for ADAM10 over MMP1
Plasma = test: Protein binding in human plasma assessed as unbound fraction; type: ADME, cell-free
[10] = AUC (0 to 24 hrs) in mouse at 10 mg/kg, po; type: ADME, organism-based; set-up: time < 24 hr, dose 10 mg/kg, route oral; conditions: plasma
[11] = Cmax in mouse at 10 mg/kg, po; type: ADME, organism-based; set-up: dose 10 mg/kg, route oral; conditions: in vivo
[12] = Half life in mouse; type: ADME, organism-based; conditions: in vivo

| IC50 (Interstitial collagenase) [µM] | IC50 [1] [µM] | IC50 (Stromelysin-1) [µM] | IC50 [2] [µM] | IC50 [3] [µM] | IC50 [4] [µM] | further results | SMILES |
| --- | --- | --- | --- | --- | --- | --- | --- |
| > 5 | 0.96 | > 3 | > 3 |  |  |  | O=C(NO)[C@H]1CC2(CC2)CN[C@@H]1C(=O)N1CCC(c2ccccc2)C1 (some centres undefined) |
| > 5 | 1.1 | 5 | 2.5 | 0.229 | 0.073 | Ratio IC50 [5]: > 15; Ratio IC50 [6]: 10; Ratio IC50 [7]: 2 | CC(C)c1cccc(C2=CCN(C(=O)[C@H]3NCC4(CC4)C[C@@H]3C(=O)NO)CC2)c1 |
|  | 0.032 |  |  | 0.042 | 0.014 |  | O=C(NO)[C@H]1CC2(CC2)CN[C@@H]1C(=O)N1CCN(c2cccc(Cl)c2)CC1 |
|  | 2.5 |  |  | 0.902 | 0.154 |  | CC(C)c1cc(C2=CCN(C(=O)[C@H]3NCC4(CC4)C[C@@H]3C(=O)NO)CC2)ccc1C#N |
|  | 0.472 |  |  | 0.169 | 0.019 |  | COC(=O)N1CC2(CC2)C[C@H](C(=O)NO)[C@H]1C(=O)N1CCC(c2ccccc2)CC1 |
| > 5 | 0.086 | > 5 | 1.5 | 0.045 | 0.027 |  | CS(=O)(=O)N1CC2(CC2)C[C@H](C(=O)NO)[C@H]1C(=O)N1CCN(c2ccccc2)CC1 |
| > 5 | 0.021 |  | 0.19 | 0.24 | 0.033 |  | CCc1cccc(C2=CCN(C(=O)[C@H]3NCC4(CC4)C[C@@H]3C(=O)NO)CC2)c1 |
| > 5 | 0.433 | > 5 | > 5 | 0.086 | 0.085 |  | Cc1cc(C)cc(C2=CCN(C(=O)[C@H]3NCC4(CC4)C[C@@H]3C(=O)NO)CC2)c1 |
|  | 5 |  |  |  | 0.099 | Activity [8]: inactive | O=C(NO)[C@H]1CC2(CC2)CN[C@@H]1C(=O)N1CC=C(c2cc(Cl)cc(Cl)c2)CC1 |
| > 5 | 0.035 | 2.6 | 0.451 | 0.15 | 0.019 |  | CC(C)COC(=O)N1CC2(CC2)C[C@H](C(=O)NO)[C@H]1C(=O)N1CC=C(c2ccccc2)CC1 |
|  | > 5 |  |  | 0.289 | 0.081 |  | COC(=O)N1CC2(CC2)C[C@H](C(=O)NO)[C@H]1C(=O)N1CCC(c2ccccc2)C1 (some centres undefined) |
| 1.89 | 0.013 | 0.359 | 0.111 | 0.042 | 0.025 |  | Cc1cccc(C2=CCN(C(=O)[C@H]3NCC4(CC4)C[C@@H]3C(=O)NO)CC2)c1 |
|  |  |  |  | 0.013 |  |  | O=C(NO)[C@H]1CC2(CC2)CN[C@@H]1C(=O)N1CC=C(c2ccccc2)C1 |
| > 5 | 0.053 | > 5 | 0.677 | 0.093 | 0.051 |  | CS(=O)(=O)N1CC2(CC2)C[C@H](C(=O)NO)[C@H]1C(=O)N1CC=C(c2ccccc2)CC1 |
| > 5 | 0.391 | > 5 | 0.604 | 0.689 | 0.194 |  | Cc1cccc(C2CCN(C(=O)[C@H]3NCC4(CC4)C[C@@H]3C(=O)NO)CC2)c1 |
| > 5 | 0.106 | 4 | 2.62 | 0.026 | 0.037 |  | O=C(NO)[C@H]1CC2(CC2)CN(C(=O)OC2CCOCC2)[C@@H]1C(=O)N1CCN(c2ccccc2)CC1 |
| > 5 | > 5 |  |  |  | 1.1 | Activity [8]: inactive | CC(C)c1cccc(N2CCN(C(=O)[C@H]3NCC4(CC4)C[C@@H]3C(=O)NO)CC2)c1 |
|  |  |  |  | 0.137 |  |  | O=C(NO)[C@H]1CC2(CC2)CN[C@@H]1C(=O)N1CCC(c2ccccc2)CC1 |
| > 5 | 0.488 | > 5 | 3.05 | 0.034 | 0.026 | Ratio IC50 [5]: 37; Ratio IC50 [6]: 40; Ratio IC50 [7]: 11; Ratio IC50 [9]: 2; PPB (Plasma): 34%; AUC(0-t) at 24 h [10]: 2.8 µM·h; Cmax [11]: 3000 nM; half-life [12]: 1.8 h | COC(=O)N1CC2(CC2)C[C@H](C(=O)NO)[C@H]1C(=O)N1CC=C(c2ccccc2)C1 |
| > 5 | 0.159 | 3.5 | > 5 | 0.129 | 0.028 |  | Cc1cc(C2=CCN(C(=O)[C@H]3NCC4(CC4)C[C@@H]3C(=O)NO)CC2)cc(C)c1C#N |
| > 5 | 0.014 | > 5 | 0.916 | 0.024 | 0.015 |  | O=C(NO)[C@H]1CC2(CC2)CN[C@@H]1C(=O)N1CC=C(c2cc(F)cc(F)c2)CC1 |
| > 5 | 0.05 | > 5 | 0.16 | 0.072 | 0.04 |  | CC(=O)N1CC2(CC2)C[C@H](C(=O)NO)[C@H]1C(=O)N1CC=C(c2ccccc2)CC1 |
|  | 1.39 | > 5 |  | 0.139 | 0.016 |  | CC(C)c1cccc(C2CCN(C(=O)[C@H]3NCC4(CC4)C[C@@H]3C(=O)NO)CC2)c1 |
|  | 0.024 |  |  |  | 0.048 |  | O=C(NO)[C@H]1CC2(CC2)CN[C@@H]1C(=O)N1CC=C(c2cccc(C3CC3)c2)CC1 |
|  | < 0.005 |  |  | 0.594 | 0.038 |  | Cc1cc(N2CCN(C(=O)[C@H]3NCC4(CC4)C[C@@H]3C(=O)NO)CC2)ccc1C#N |
| > 5 | 0.063 | > 1 | 1.27 | 0.184 | 0.187 |  | Cc1cccc(N2CCN(C(=O)[C@H]3NCC4(CC4)C[C@@H]3C(=O)NO)CC2)c1 |
| > 5 | 0.037 | 1.67 | 0.309 | 0.431 | 0.034 |  | O=C(NO)[C@H]1CC2(CC2)CN(C(=O)OCc2ccccc2)[C@@H]1C(=O)N1CC=C(c2ccccc2)CC1 |
| > 5 | 0.05 |  | 0.11 | 0.194 | 0.04 |  | COc1cccc(C2=CCN(C(=O)[C@H]3NCC4(CC4)C[C@@H]3C(=O)NO)CC2)c1 |
